Results reported in publication PMC5838147, “Modulation of Oral Bioavailability and Metabolism for Closely Related Cyclic Hexapeptides” (International Journal of Peptide Research and Therapeutics, 2017).
In brackets after ≈: the same amount, converted by molar mass. Like-named read-outs stand apart in the source and are kept apart here. Where a SMILES comes first, the peptide text is derived from it. [ ]: non-standard residue; d: D form. NMeY = CN[C@@H](Cc1ccc(O)cc1)C(=O)O; NMeL = CN[C@@H](CC(C)C)C(=O)O; dNMeL = CN[C@H](CC(C)C)C(=O)O; Abu = CC[C@H](N)C(=O)O

What was measured:
[1] = Supercritical fluid chromatography (SFC) retention, exposed polarity; type: physicochemical; details: Chirex 3014 column, reflects exposure of polar groups
From the text: Conditions for analytical supercritical fluid chromatography (SFC) were taken from previous publications (Goetz et al. [2014a], [b]). The Pirkle chiral stationary phase Chirex 3014, a silica bonded (S)-valine and (R)-1-(α-naphthyl)ethylamine with a urea linkage, was selected. A mobile phase of 15% methanol in supercritical CO2 enabled adequate separation in combination with a low-slope gradient. High retention times were mitigated by increasing the percentage of methanol in the eluent and the addition of the relatively weak salt pair ammonium formate. In the resulting chromatographic system, differences in retention depend upon hydrophobic interactions, the ability for hydrogen bonding, the presence of dipoles, and van der Waals interactions of the solutes with the stationary phase (Goetz et al. [2014a], [b]).
Next, we applied SFC-analysis to compare calculations related to polar surface area with experimentally derived data. […] Thus, calibrated SFC retention times can be compared to the SAPSA values obtained from molecular dynamics. […] As a result, shielding of polar atoms under SFC conditions is realized most optimally in the Abu derivative (4) leading to a short retention time of 2.7 min. […] However, in this case the best permeability was attributed to the Phe analogue. […] However, most likely in the case of peptide (5), for which the MDCK assay is not aligned with PAMPA and SFC, the low predictability for oral uptake would have excluded this candidate from an in vivo experiment. Taking into account the in vitro profiling, it seems possible to identify cyclic peptides with good permeability and solubility.

[2] = plasma
Protocol: (§1) The values relate to single experiments. […] This has been estimated by looking at independent replicates across the assay dynamic range.
(§2) In order to make predictions of pharmacokinetic properties of these cyclic peptides, further in vitro evaluation was carried out to determine plasma-protein binding (PPB) and metabolic stability in mouse liver microsomes (MLM). […] In order to predict clearance in vivo, evaluation in vitro was assessed in MLM.

[3] = mouse, in vivo; for Vd / clearance: iv, 1 mg/kg; for Tmax: po
Protocol: (§3) For mouse PK on peptides (4) and (5), blood concentrations versus time profiles were obtained from 2 groups of 3 male C57Bl/6 mice. In the intravenous PK group (n = 3), the compound was administered intravenous (i.v.) by bolus injection (5 mL/kg) at a dose of 1 mg/kg, solubilized in N-Methyl-2-pyrrolidone (10%) and blank plasma (90%). For oral PK, another group of 3 male C57Bl/6 mice, a dose of 3 mg/kg was orally applied (dosing volume of 10 mL/kg) as a homogenous suspension of water (99%), Tween80 (0.5%) and methylcellulose (0.5%).
(§4) For both rodents, blood samples (10–50 µL) were collected at 0.08 (i.v. only), 0.25, 0.5, 1, 2, 4, 7, and 24 h after dosing. […] Analyses of parent compound concentrations were carried out in blood using LC-MS/MS. An aliquot of 30 μL was taken and added to 200 μL MeCN (including Glyburide (c = 50 ng/mL) as internal standard) for protein precipitation. Sample analysis was performed on a LC–MS/MS system consisting of an AB SCIEX API 5500 QTrap mass spectrometer equipped with a TurboIonSpray™ interface (Framingham, USA). The MS system was connected to a HTS CTC PAL auto-sampler (Zwingen, Switzerland) and to a Flux Rheos 2200 pump system (Reinach, Switzerland). The supernatants (2 µL) were injected directly onto the LC-MS/MS system for analysis. The test articles and its internal standard were separated with a Phenomenex Kinetex C18 (50 × 2 mm ID, 2.7 µm pore size). A binary gradient with a mobile phase consisting of water (A) and acetonitrile (B) was used for the LC-separation. Both mobile phases (A) and (B) were acidified with 0.1% formic acid. The elution gradient program was as follows: [time (min), (% mobile phase B): (0, 95) (5.8, 85) (5.81, 99) (6.5, 99) (6.51, 95) (8, 95)]. The column temperature was maintained at 50 °C using a column heater. Under these experimental conditions, the LLOQ was 0.4 ng/mL.

[4] = rat, in vivo, 3 mg/kg; for clearance: iv; for AUC: po
Protocol: (§5) For rat PK, blood concentration versus time profiles were obtained from 3 male Sprague Dawley rats. For intravenous PK, the compound was administered intravenously by bolus injection (0.5 mL/kg) at a dose of 3 mg/kg, solubilized in N-Methyl-2-pyrrolidone (30%) and PEG200 (70%). For oral PK, after a washout period of 48 h, an oral gavage was administered to the same animals at a dose of 3 mg/kg at a dosing volume of 2.5 mL/kg. The oral dose was dispersed in water (99%), Tween80 (0.5%) and methylcellulose (0.5%), forming a homogenous suspension. For both rodents, blood samples (10–50 µL) were collected at 0.08 (i.v. only), 0.25, 0.5, 1, 2, 4, 7, and 24 h after dosing. To investigate the absorption and the impact of pre-systemic metabolism, the model of portal vein cannulation in rats was applied for compounds orally dosed in a cassette. The week before the PK experiments, the rats were surgically prepared with catheter implantation into the right jugular vein (for collection of blood from the systemic circulation) and the hepatic portal vein (for collection of blood from the portal vein, i.e. after intestinal absorption and metabolism and before liver pe-systemic metabolism). After recovery, the rats were orally dosed by gavage (same dose, volume and formulation as described above), and blood samples (50 µL) were collected at 0.25, 0.5, 1, 2, 4, 7, and 24 h concomitantly from the 2 blood vessels. Analyses of parent compound concentrations were carried out in blood using LC-MS/MS. An aliquot of 30 μL was taken and added to 200 μL MeCN (including Glyburide (c = 50 ng/mL) as internal standard) for protein precipitation. Sample analysis was performed on a LC–MS/MS system consisting of an AB SCIEX API 5500 QTrap mass spectrometer equipped with a TurboIonSpray™ interface (Framingham, USA). The MS system was connected to a HTS CTC PAL auto-sampler (Zwingen, Switzerland) and to a Flux Rheos 2200 pump system (Reinach, Switzerland). The supernatants (2 µL) were injected directly onto the LC-MS/MS system for analysis. The test articles and its internal standard were separated with a Phenomenex Kinetex C18 (50 × 2 mm ID, 2.7 µm pore size). A binary gradient with a mobile phase consisting of water (A) and acetonitrile (B) was used for the LC-separation. Both mobile phases (A) and (B) were acidified with 0.1% formic acid. The elution gradient program was as follows: [time (min), (% mobile phase B): (0, 95) (5.8, 85) (5.81, 99) (6.5, 99) (6.51, 95) (8, 95)]. The column temperature was maintained at 50 °C using a column heater. Under these experimental conditions, the LLOQ was 0.4 ng/mL.
(§6) Accordingly, we decided to conduct a hepatic portal vein (H.P.V.) study in Sprague Dawley rats due to the technical difficulties associated with a smaller species like mice. Rats were equipped with double jugular vein and hepatic portal vein cannulation. A standard jugular vein cannulation experiment was run in parallel as a control.

[5] = mouse, microsomes
Protocol: as §1, §2

[6] = mouse
Protocol: as §3, §4

[7] = rat, in vivo, po, 3 mg/kg
Protocol: as §5, §6

in vivo = details: male, po
Protocol: as §3, §4

physchem = details: pH 6.8, thermodynamic from solid
Protocol: (§7) The values relate to single experiments. For the MDCK assay, the lower limit of quantification (LLOQ) was 5 nM, and for PAMPA 2 nM, respectively. […] This has been estimated by looking at independent replicates across the assay dynamic range.

in vitro [8] = details: dog, MDCK
Protocol: as §7

in vitro [9] = details: mouse, microsomes
Protocol: as §1, §2

[10] = in vivo, cited from earlier work; for CL Mouse / Vss: iv, 2.1 mg/kg; for Vss / Tmax / T1/2term: mouse; for Tmax: po, 7.1 mg/kg

Structure (SMILES) | SFC [1] | fraction unbound [2] | half-life [3] | Vd [3] | clearance [3] | Tmax ([3]; 3 mg/kg) | clearance [4] | AUC ([4]; Jugular vein (AuC)) | AUC ([4]; Portal vein (AuC)) | Log PAMPA | clearance in the MLM assay (in words) [5] | class for in vivo CL in mice [6] | Liver first pass effect [7] | bioavailability (in vivo; C57BL/6, mouse) | solubility thermodynamic (physchem) | Papp (in vitro [8]) | microsomal CLint (in vitro [9]) | CL Mouse [10] | Vss [10] | Tmax [10] | other results
CC[C@@H]1NC(=O)[C@H]2CCCN2C(=O)[C@H](CC(C)C)NC(=O)[C@H](CC(C)C)N(C)C(=O)[C@@H](CC(C)C)N(C)C(=O)[C@H](CC(C)C)NC1=O [(4), [Abu-Leu-NMe-D-Leu-NMe-Leu-Leu-D-Pro]] (cyclo([Abu]L[dNMeL][NMeL]L[dP])) | 2.7 min | < 0.01 | 48 ± 12 min | 2.1 ± 0.2 L/kg | 49 ± 14 mL/min/kg | 18 min | 41 mL/min/kg | 1.66 µM·h | 1.84 µM·h | −4.3 | very high CL | medium CL | 11% | 39 ± 4% | 602 µM (≈ 399 µg/mL) | 4 ×10⁻⁶ cm/s | 324 µL/min/mg | – | – | – | –
CC(C)C[C@@H]1NC(=O)[C@H](Cc2ccc(O)cc2)NC(=O)[C@H]2CCCN2C(=O)[C@H](CC(C)C)NC(=O)[C@H](CC(C)C)NC(=O)[C@@H](CC(C)C)NC1=O [(1), [Tyr-Leu-D-Leu-Leu-Leu-D-Pro-]] (cyclo(LL[dP]YL[dL])) | 4.8 min | 0.08 | – | – | – | – | – | – | – | – | – | high CL | – | – | 151 µM (≈ 108 µg/mL) | – | 95 µL/min/mg | 82 ± 15 mL/min/kg | 0.8 ± 0.2 L/kg | 36 ± 18 min | T1/2term [10]: 12 ± 0 min
CC(C)C[C@@H]1NC(=O)[C@H](C)NC(=O)[C@H]2CCCN2C(=O)[C@H](CC(C)C)NC(=O)[C@H](CC(C)C)N(C)C(=O)[C@@H](CC(C)C)N(C)C1=O [(5), [Ala-Leu-NMe-D-Leu-NMe-Leu-Leu-D-Pro]] (cyclo(AL[dNMeL][NMeL]L[dP])) | 2.8 min | < 0.01 | 24 ± 6 min | 2.8 ± 0.3 L/kg | 105 ± 26 mL/min/kg | 18 min | 70 mL/min/kg | 0.104 µM·h | 0.449 µM·h | −4.6 | very high CL | high CL | 77% | 23 ± 4% | > 1000 µM | 2.7 ×10⁻⁶ cm/s | 654 µL/min/mg | – | – | – | –
CC(C)C[C@@H]1NC(=O)[C@H](Cc2ccc(O)cc2)N(C)C(=O)[C@H]2CCCN2C(=O)[C@H](CC(C)C)NC(=O)[C@H](CC(C)C)N(C)C(=O)[C@@H](CC(C)C)N(C)C1=O [(2), [NMe-Tyr-Leu-NMe-D-Leu-NMe-Leu-Leu-D-Pro]] (cyclo(L[dNMeL][NMeL]L[dP][NMeY])) | 4.1 min | < 0.01 | – | – | – | – | – | – | – | – | medium clearance | low CL | – | – | 26 µM (≈ 19.6 µg/mL) | – | 63 µL/min/mg | 1 ± 0 mL/min/kg | 0.4 ± 0.0 L/kg | 228 ± 186 min | T1/2term [10]: 1360 ± 324 min
CC(C)C[C@@H]1NC(=O)[C@H](Cc2ccccc2)NC(=O)[C@H]2CCCN2C(=O)[C@H](CC(C)C)NC(=O)[C@H](CC(C)C)N(C)C(=O)[C@@H](CC(C)C)N(C)C1=O [(3), [Phe-Leu-NMe-D-Leu-NMe-Leu-Leu-D-Pro]] (cyclo(FL[dNMeL][NMeL]L[dP])) | 2.9 min | < 0.01 | 330 ± 24 min | 0.6 ± 0.1 L/kg | 2 mL/min/kg | – | – | – | – | −4.0 | very high CL | low CL | – | – | 30 µM (≈ 21.7 µg/mL) | 11.6 ×10⁻⁶ cm/s | 488 µL/min/mg | – | – | – | Tmax ([3]; 7.5 mg/kg): 18 ± 6 min; bioavailability (in vivo; OF1, mouse): 7 ± 2%
